# Test results taken from patent US6849596B1, “Regulatory/unfolding peptides of ezrin” (priority 1999, dated 2005).
# Experiments:
# [1] = test system: IgG serum antibody response to Ovalbumin; assay: Adjuvant activity: IgG serum antibody response to Ovalbumin in mice; format: in vivo; details: for IgG response recorded as OD: 50 micrograms Ovalbumin, two weeks, sera 1 to 100; for IgG response recorded as OD then rebased relative to 100 for each control: control = 100
# Experimental: Adjuvant Activity of Hepreceptor Peptides Enhancing the IgG Serum Antibody Response to Ovalbumin in Mice
# The IgG response in mice two weeks after an injection of 50 micrograms of Ovalbumin plus various concentrations of different hepreceptor peptides was determined. IgG response was measured by Optical Density (OD) of a 1 to 100 dilution of mouse sera in the presence of Ovalbumin.
# IgG response recorded as OD
# IgG response recorded as OD then data rebased relative to 100 for each control
# [2] = test system: antibody forming cells against sheep erythocytes (SRBC); assay: Antibody forming cells against sheep erythocytes (SRBC) in mice, plaque count; format: in vivo; details: four days after SRBC, thirty mice per data point
# Experimental: Activity of Hepreceptor Peptides Enhancing the Antibody-Dependent Cytotoxic Response in […] to Sheep Red Blood Cells (SRBC) in Mice
# The influence of Hepreceptor peptides on the activation of antibody forming cells against sheep erythocytes (SRBC) in Mice (CBA-C57B1 Fi hybrids. 2 months old, weight 18-22 grams) was determined. Mice were first injected intraperitoneally using either 0.5 ml sterile saline as a control or Hepreceptor peptides in the same volume of saline. 30 minutes after the injection of Hepreceptor peptides, a cell suspension containing 5 million SRBC was administered intraperitoneally to each mouse. Four days after the immunisation, the mice were killed by cervical dislocation and the spleens were obtained aseptically. Each spleen was homogenised in 2 ml of Medium 199, then 100 microliters of this suspension was put into 1 ml of prepared agarose in Medium 199 (stored in water bath at 48° C.), SRBC suspension was added, resulting in a final concentration of 1% agarose. The Im1 of agarose-cell mixture was agitated then transferred to petri dish to set. When the agarose became solid, the petri dish was incubated for 1 hour at 37° C. then 0.5 ml of 1-in-20 diluted guinea pig serum in Medium 199 was added on top of agarose gel as a source of complement. The incubation was continued for another 1 hour. The dishes were then visualised using an 8×binocular microscope and the number of plaques counted (each plaque equivalent to one antibody secreting mouse spleen cell). The results were expressed both as the number of antibody secreting cells per one million nucleated spleen cells and the number of antibody secreting cells per whole spleen.
# Averaged data (from thirty mice per data point) of the number of antibody forming cells per one million nucleated spleen cells. The data was re-based relative to 100 for each control group.
# [3] = test system: human Peripheral Blood Mononuclear Cells; assay: In vitro activation of human PBMC, tritiated thymidine incorporation; format: cell-based; details: three days, Control 370
# Experimental: Peripheral Blood Mononuclear Cells (PBMC) were separated from the peripheral blood of a […] donor using the standard method of fractionation in a ficoll gradient. The PBMC were suspended in culture medium containing RPMI1640 medium plus 10% fetal calf serum, 1 mM L-glutamin and antibiotics (BM). The cell suspension was placed in wells of a 96 hole microwell plate for cell cultivation, (100 microliters of suspension containing 100,000 cells per well). […] The negative control well contained BM but no peptide. The plate was incubated at 37° C. for three days then radioactive ^3H thymidine was added to a final concentration of 1 microcurie per ml. The incorporation of ^3H thymidine into the DNA of the cells was measured using a betacounter using standard procedures. The experiment was repeated twice and the results expressed as an average of the two experiments in radioactive counts per minute.
# Salmonella typhimurium = assay: Protection of mice from acute Salmonella typhimurium infection; format: in vivo; details: control 0%
# Experimental: Laboratory mice (CBAxC57B1 F1 hybrids) were split into groups of five which either received 0.5 ml saline or 0.5 ml saline plus various concentrations of different Hepreceptor peptides (1, 10 or 100 nanograms). 24 hours later the mice were acutely infected with Salmonella typhimurium (10,000 or 100,000 bacteria injected intraperitoneally per mouse). The percent of each group of mice surviving after 20 days was recorded (lethally infected control animals were dead within three days of infection).
# Percent of mouse group surviving after 20 days infection
# activated macrophages = assay: Induction of activated macrophages in mice (peritoneal exsudate); format: in vivo; details: for activity in increasing activated macrophages relative to HEP1: 1.0 microgram peptide/mouse; for Activated macrophages as a percent of total number of cells: 1.0 microgram peptide/mouse injected abdominally, after 24 hours, saline 1.9
# Experimental: Groups of three mice (CDAxC57B1)F1 weighing 22-24 g were injected abdominally with each peptide solution of 1.0 microgram of peptide dissolved in 0.5 ml of physiological saline. After 24 hours the animals were killed using neck vertebrae dislocation and 5 ml of Hanks solution was injected into the abdomen. The abdomen was massaged for 30 seconds and then the peritoneal liquid was collected. The collected liquid was filtered using a nylon filter into siliconised tubes containing 1.5 mg/ml EDTA. The number of nucleus containing cells in […] of filtrate were then assessed under microscopic examination using a Nihon hemocytometer. The cells were pelleted by centrifugation for 5 minutes at 800 g, the pellet was resuspended in fetal calf serum, the cell suspension was dropped on to a glass microscope slide and dried then fixed in methanol and stained with Romanovski's colouring agent. Morphological analysis of the cells of the peritoneal exsudate were performed using an Opton optical microscope at 1600 magnifications. The number of lymphocytes, resting macrophages, activated macrophages, granulocytes and other cell types were assessed.
# [4] = IP injection 0.01 micrograms per mouse
# [5] = IP injection 0.1 micrograms per mouse
# [6] = IP injection 1 microgram per mouse
# [7] = IP injection 10 micrograms per mouse
# [8] = 10,000 bacteria per mouse, 1 nanogram peptide per mouse 24 hours before
# [9] = 10,000 bacteria per mouse, 10 nanograms peptide per mouse
# [10] = 10,000 bacteria per mouse, 100 nanograms peptide per mouse
# [11] = 100,000 bacteria per mouse, 1 nanogram peptide per mouse
# [12] = 100,000 bacteria per mouse, 10 nanograms peptide per mouse
# [13] = 100,000 bacteria per mouse, 100 nanograms peptide per mouse
Substance,"IgG response recorded as OD [1, 4] [OD]","IgG response recorded as OD then rebased relative to 100 for each control [1, 4]","IgG response recorded as OD [1, 5] [OD]","IgG response recorded as OD then rebased relative to 100 for each control [1, 5]","IgG response recorded as OD [1, 6] [OD]","IgG response recorded as OD then rebased relative to 100 for each control [1, 6]","IgG response recorded as OD [1, 7] [OD]","number of antibody forming cells per one million nucleated spleen cells, re-based relative to 100 for control [2, 6]","number of antibody forming cells per one million nucleated spleen cells, re-based relative to 100 for control [2, 7]",incorporation of 3H thymidine ([3]; Peptide 0.0001 micro g/ml),incorporation of 3H thymidine ([3]; Peptide 0.0003 micro g/ml),incorporation of 3H thymidine ([3]; Peptide 0.001 micro g/ml),incorporation of 3H thymidine ([3]; Peptide 0.003 micro g/ml),incorporation of 3H thymidine ([3]; Peptide 0.01 micro g/ml),incorporation of 3H thymidine ([3]; Peptide 0.03 micro g/ml),incorporation of 3H thymidine ([3]; Peptide 0.1 micro g/ml),incorporation of 3H thymidine ([3]; Peptide 0.3 micro g/ml),incorporation of 3H thymidine ([3]; Peptide 1 micro g/ml),incorporation of 3H thymidine ([3]; Peptide 3 micro g/ml),incorporation of 3H thymidine ([3]; Peptide 10 micro g/ml),other results
EREKE (Hepreceptor peptide) [Rupe1014],0.232,183,0.231,182,0.477,376,0.508,202,325,–,–,–,–,–,–,–,–,–,–,–,"IgG response recorded as OD then rebased relative to 100 for each control [1, 7]: 400"
TEKKRRETV (Hepreceptor peptide) [Rupe19],–,–,–,–,–,–,–,–,–,426 radioactive counts per minute,602 radioactive counts per minute,718 radioactive counts per minute,756 radioactive counts per minute,545 radioactive counts per minute,586 radioactive counts per minute,537 radioactive counts per minute,563 radioactive counts per minute,509 radioactive counts per minute,502 radioactive counts per minute,517 radioactive counts per minute,–
RETVEREKE (Hepreceptor peptide) [Rupe614],–,–,–,–,–,–,–,–,–,464 radioactive counts per minute,503 radioactive counts per minute,550 radioactive counts per minute,752 radioactive counts per minute,607 radioactive counts per minute,538 radioactive counts per minute,596 radioactive counts per minute,635 radioactive counts per minute,600 radioactive counts per minute,499 radioactive counts per minute,412 radioactive counts per minute,–
TEKKR (Hepreceptor peptide) [Rupe15],–,–,–,–,–,–,–,255,134,–,–,–,–,–,–,–,–,–,–,–,Percent of mouse group surviving after 20 days infection (Salmonella typhimurium; [8]): 20%; Percent of mouse group surviving after 20 days infection (Salmonella typhimurium; [9]): 40%; Percent of mouse group surviving after 20 days infection (Salmonella typhimurium; [10]): 40%; Percent of mouse group surviving after 20 days infection (Salmonella typhimurium; [11]): 20%; Percent of mouse group surviving after 20 days infection (Salmonella typhimurium; [12]): 20%; Percent of mouse group surviving after 20 days infection (Salmonella typhimurium; [13]): 0%
KRRETVER (Hepreceptor peptide) [Rupe411],–,–,–,–,–,–,–,–,–,385 radioactive counts per minute,510 radioactive counts per minute,702 radioactive counts per minute,598 radioactive counts per minute,532 radioactive counts per minute,500 radioactive counts per minute,499 radioactive counts per minute,486 radioactive counts per minute,468 radioactive counts per minute,420 radioactive counts per minute,390 radioactive counts per minute,activity in increasing activated macrophages relative to HEP1 (activated macrophages): significantly more active than HEP1; Activated macrophages as a percent of total number of cells (activated macrophages): 5.5%
TEKKRRETVER (Hepreceptor peptide) [Rupe111],–,–,–,–,–,–,–,–,–,483 radioactive counts per minute,483 radioactive counts per minute,710 radioactive counts per minute,665 radioactive counts per minute,537 radioactive counts per minute,642 radioactive counts per minute,633 radioactive counts per minute,668 radioactive counts per minute,529 radioactive counts per minute,486 radioactive counts per minute,470 radioactive counts per minute,activity in increasing activated macrophages relative to HEP1 (activated macrophages): significantly more active than HEP1; Activated macrophages as a percent of total number of cells (activated macrophages): 4.3%
EREKEQMMREKEEL (Hepreceptor peptide) [Rupe1024],0.250,164,0.262,172,0.489,322,0.445,401,397,–,–,–,–,–,–,–,–,–,–,–,"IgG response recorded as OD then rebased relative to 100 for each control [1, 7]: 293; Percent of mouse group surviving after 20 days infection (Salmonella typhimurium; [8]): 40%; Percent of mouse group surviving after 20 days infection (Salmonella typhimurium; [9]): 40%; Percent of mouse group surviving after 20 days infection (Salmonella typhimurium; [10]): 40%; Percent of mouse group surviving after 20 days infection (Salmonella typhimurium; [11]): 0%; Percent of mouse group surviving after 20 days infection (Salmonella typhimurium; [12]): 20%; Percent of mouse group surviving after 20 days infection (Salmonella typhimurium; [13]): 40%"
KEELMLRLQDYEE (Hepreceptor peptide) [Rupe2032],0.509,401,0.606,477,0.327,257,0.203,236,232,–,–,–,–,–,–,–,–,–,–,–,"IgG response recorded as OD then rebased relative to 100 for each control [1, 7]: 160"
